Experimental findings from patent US8962576B2, “Compositions and method for improving endothelial function and cardiovascular health” (Natreon, Inc., priority 2012, dated 2015) are described below.

The assay relates to Type 2 Diabetic Subjects. Nature of the assay: Lipid profile, study (c). Format: in vivo, human. Conditions: CAPROS 250 mg twice daily, Atorvastatin 10 mg daily, n = 20. The source says:
After screening, all the eligible subjects were randomized to receive either one of the four treatments for a duration of 12 weeks, as follows.
All the subjects had undergone complete physical examination, safety lab evaluations at baseline and at the end of the treatment. Samples were collected after an overnight fast of 12 hrs after the last dose of medication for determination of haemoglobin, HbA1c, blood urea and serum creatinine, liver function test, and lipid profile (Total cholesterol (TC), High density lipoprotein cholesterol (HDL-C), low density lipoprotein cholesterol (LDL-C)), and results obtained using appropriate standard techniques.

On to `CC(C)c1c(C(=O)Nc2ccccc2)c(-c2ccccc2)c(-c2ccc(F)cc2)n1CC[C@@H](O)C[C@@H](O)CC(=O)O` [Atorvastatin], for which, under “12 weeks”, the “Absolute change in HDL-C” value amounted to 7.52 ± 7.00 mg/dL, the “Absolute change in LDL-C” value is -47.48 ± 24.19 mg/dL, the “Absolute change in Total Cholesterol” value was -48.11 ± 36.87 mg/dL and the “Absolute change in Triglycerides” value is -48.54 ± 50.09 mg/dL. Further, where the note is “12 weeks”, the “Absolute change in VLDL-C” value was -5.30 ± 4.70 mg/dL, the “Mean percentage change in HDL-C” value came to 21.16 ± 20.49%, the “Mean percentage change in LDL-C” value was −35.00 ± 14.34% and the “Mean percentage change in Total Cholesterol” value is −24.68 ± 14.38%. Under “12 weeks”, the “Mean percentage change in Triglycerides” value is reported as −25.02 ± 25.34% and the “Mean percentage change in VLDL-C” value is −18.24 ± 17.10%. Also, for the setting “Post TT, 12 weeks”, the HDL-C was 47.95 ± 5.34 mg/dL, the LDL-C was determined as 78.50 ± 16.71 mg/dL, the “Total Cholesterol” value is 135.6 ± 26.94 mg/dL and the Triglycerides worked out at 106.5 ± 30.79 mg/dL. The VLDL-C (Post TT, 12 weeks) was 19.90 ± 3.64 mg/dL. Moreover, under “Pre TT”, the HDL-C amounted to 40.44 ± 6.76 mg/dL, the LDL-C stood at 126.00 ± 34.90 mg/dL, the “Total Cholesterol” value is 183.7 ± 37.41 mg/dL and the Triglycerides amounted to 155.0 ± 56.51 mg/dL. For the setting “Pre TT”, this compound returned a VLDL-C of 25.20 ± 6.57 mg/dL.
